ChEMBL document CHEMBL1141425, “Cytotoxic clerodane diterpenoids and their hydrolysis products from Casearia nigrescens from the rainforest of Madagascar” (J Nat Prod, 2007)

Tested on: A2780
Assay: Cytotoxicity against human A2780 cells
Type: cell-based

| SMILES | IC50 |
| --- | --- |
| C=CC(=C)CC[C@]1(C)[C@H](C)C[C@H](O)[C@@]23C(=C[C@H](OC(=O)CCC)C[C@@H]12)[C@@H](OC(C)=O)O[C@H]3OC(C)=O [CASEANIGRESCEN D] | 1000 nM |
| C=CC(=C)CC[C@]1(C)[C@H](C)[C@@H](OC(C)=O)[C@H](O)[C@@]23C(=C[C@H](OC(=O)CCC)C[C@@H]12)[C@@H](OC(C)=O)O[C@H]3OC(C)=O [CASEANIGRESCEN A] | 1400 nM |
| C=CC(=C)CC[C@]1(C)[C@H](C)[C@@H](O)[C@H](O)[C@@]23C(=C[C@H](OC(=O)CCC)C[C@@H]12)[C@@H](OC(C)=O)O[C@H]3OC(C)=O [CASEANIGRESCEN B] | 830 nM |
| C=CC(=C)CC[C@]1(C)[C@H](C)C[C@H](O)[C@@]2(C=O)C(C=O)=C[C@H](OC(=O)CCC)C[C@@H]12 [CASEANIGRESCEN D2] | 1500 nM |
| C=CC(=C)CC[C@]1(C)[C@H](C)[C@@H](O)[C@H](OC(C)=O)[C@@]23C(=C[C@H](OC(=O)CCC)C[C@@H]12)[C@@H](OC(C)=O)O[C@H]3OC(C)=O [CASEANIGRESCEN C] | 1000 nM |
| C=CC(=C)CC[C@]1(C)[C@H](C)[C@@H](OC(C)=O)[C@H](O)[C@@]2(C=O)C(C=O)=C[C@H](OC(=O)CCC)C[C@@H]12 | 3500 nM |
